From patent US10913757B2, “Hydroxycinnamic derivatives, methods and uses thereof” (UNIVERSIDADE DO PORTO, priority 2016, dated 2021)

Experiments:
[1] = system: rat liver mitochondria (RLM); test: AntiOxCINs uptake by energised rat liver mitochondria (TPP-selective electrode); assay type: in vitro ADME; settings: FIG. 3
Experimental: In an embodiment, and as an example, mitochondrial AntiOxCINs uptake was assessed in isolated rat liver mitochondria (RLM) in response to the membrane potential. AntiOxCINs can accumulate inside mitochondria driven by the ΔΨ (FIG. 3A). Different AntiOxCINs accumulation outlines within the mitochondrial matrix have been noticed. […] However, the linear increase of AntiOxCINs lipophilicity was not directly translated into an increase in the ratio of mitochondrial matrix accumulation (FIG. 3B). The following ranking order was attained: AntiOxCIN1<AntiOxCIN2<[…]<AntiOxCIN3 (catechol series); AntiOxCIN4<AntiOxCIN7<AntiOxCIN6 (pyrogallol series) (FIG. 3C).
(§1) In an embodiment, the evaluation of AntiOxCINs functional mitochondrial toxicity profile was performed in rat liver mitochondria (RLM). RLM were prepared by tissue homogenization followed by differential centrifugations in ice-cold buffer containing 250 mM sucrose, 10 mM HEPES (pH 7.4), 1 mM EGTA, and 0.1% fat-free bovine serum albumin. After obtaining a crude mitochondrial preparation, pellets were washed twice and resuspended in washing buffer (250 mM sucrose and 10 mM HEPES, pH 7.4). The protein concentration was determined by the biuret assay using BSA as a standard.
In an embodiment, the AntiOxCINs mitochondria uptake by energized RLM was evaluated as follows: RLM (0.5 mg protein/mL) were incubated with AntiOxCINs at 37° C. under constant stirring in 1 mL of KCl medium (120 mM KCl, 10 mM HEPES, pH 7.2 and 1 mM EGTA). Five sequential 1 μM additions of each AntiOxCINs were performed to calibrate the electrode response in the presence of rotenone (1.5 μM). Then, succinate (10 mM) was added to generate AN. Valinomicin (0.2 μg/mL) was added at the end of the assay to dissipate AN. […] The mitochondrial accumulation ratio was calculated by the disappearance of AntiOxCINs from extra- to intramitochondrial medium assuming an intramitochondrial volume of 0.5 μL/mg protein and a binding correction for the mitochondrial uptake of TPP compounds.

[2] = Lipophilic properties by electrochemistry at ITIES (transfer potential); assay type: physicochemical; settings: aqueous phase to 1,6-dichlorohexane, DPV, C=0.32 mM
Experimental: In an embodiment, AntiOxCINs lipophilic properties were evaluated at physiological pH by electrochemistry. The used technique is often used to mimic the transfer of ionic drugs through biological membranes as the process occurs at the interface between two immiscible electrolyte solutions (ITIES). The transfer potential (Etr) at which the ionic drug, initially present in the aqueous phase (C=0.32 mM), is transferred to the 1,6-dichlorohexane (DCH) phase is measured by differential pulse voltammetry (DPV). In the ITIES model, the transfer potential (Etr) becomes less positive with the increasing of the drug lipophilic character.
In an embodiment, the electrochemical analytical data was obtained using a computer controlled potentiostat Autolab PGSTAT302N (Metrohm Autolab, Utrecht, Netherlands). Generally, cyclic voltammetry (CV) data was acquired at a scan rate of 50 mVs^−1. Differential pulse voltammetry (DPV) results were acquired at a step potential of 4 mV, pulse amplitude of 50 mV and scan rate of 8 mVs^−1. The electrochemical signals were monitored by the General Purpose Electrochemical System (GPES) version 4.9, software package. All electrochemical experiments were performed at room temperature in an electrochemical cell that was placed in a Faraday cage in order to minimize the contribution of background noise to the analytical signal.
In an embodiment, the process of evaluation of AntiOxCINs redox properties was conducted as follows: stock solutions of each compound (10 mM) were prepared by dissolving the appropriate amount in ethanol. The voltammetric working solutions were prepared in the electrochemical cell, at a final concentration of 0.1 mM. The […] supporting electrolyte was prepared by diluting […] to 100 mL. Voltammetric data was acquired in a three-electrode system consisting of a glassy carbon electrode (GCE, d=2 mm) as working electrode, a counter electrode of platinum wire and a saturated Ag/AgCl reference electrode. In an embodiment, the evaluation of AntiOxCINs lipophilic properties was performed as follows: the electrochemical cell was a four-electrode system with arrays of micro liquid-liquid interfaces (μlTIES) containing two Ag/AgCl reference electrodes and two counter electrodes of Pt, one in each phase. The microporous membrane was sealed with a fluorosilicone sealant (Dow Corning 730) onto a glass cylinder which was filled with 4.0 mL of the aqueous phase, where the aliquots of AntiOxCINs solutions were added. The membrane was then immersed into the organic phase contained in the cell. The organic phase reference solution (a 2 mM BTPPACI+2 mM NaCl aqueous solution) was mechanically stabilized The aqueous supporting electrolyte solution was a Tris-HCl buffer 10 mM pH 7.0.

[3] = system: mitochondrial permeability transition pore (mPTP) of RLM; test: Mitochondrial permeability transition pore (mPTP) opening, mitochondrial swelling; assay type: biochemical, rat; settings: 2.5, 5 and 10 μM, pre-incubated 5 min before calcium, FIG. 7A-C
Experimental: In an embodiment, the AntiOxCINs effects on mitochondrial permeability transition pore (mPTP) opening were evaluated. In general, less lipophilic AntiOxCINs had no effect on mPTP opening for all tested concentrations (FIG. 7A-C).
as §1
In an embodiment, the effect of AntiOxCINs on mitochondrial permeability transition pore opening were measured as follows: mitochondrial swelling was estimated by measuring the alterations of light scattered from a mitochondrial suspension, as monitored spectrophotometrically at 540 nm. Increasing concentrations of AntiOxCINs (2.5-10 μM) were added to the reaction medium (200 mM sucrose, 1 mM KH2PO4, 10 mM Tris (pH 7.4), 5 mM succinate and 10 μM EGTA supplemented with 1.5 μM rotenone), in the presence of RLM (1 mg), and allowed to incubate for a 5 min period before the assay. The experiments were initiated by the addition of a suitable concentration of Ca^2+ (15-50 μM), titrated every day. […] The reaction was stirred continuously and the temperature maintained at 37° C. Data are means±SEM of three independent experiments and are expressed as Aabsorbance at 540 nm.

| SMILES | mitochondrial accumulation ratio [1] | Etr (transfer potential) [2] [V] | effect on calcium-dependent mPTP opening [3] |
| --- | --- | --- | --- |
| CS(=O)(=O)[O-].O=C(/C=C/c1ccc(O)c(O)c1)NCCCCCC[P+](c1ccccc1)(c1ccccc1)c1ccccc1 [AntiOxCIN2, (E)-(6-(3-(3,4-dihydroxyphenyl)prop-2-enamido)hexyl)triphenylphosphonium methanesulfonate] | approximately the same accumulation ratio | 0.396 |  |
| CS(=O)(=O)[O-].O=C(/C=C/c1ccc(O)c(O)c1)NCCCCCCCC[P+](c1ccccc1)(c1ccccc1)c1ccccc1 [AntiOxCIN3, (E)-(8-(3-(3,4-dihydroxyphenyl)acrylamido)octyl)triphenylphosphoniummethanesulfonate] |  | 0.345 | inhibition of calcium-dependent mPTP opening |
| CS(=O)(=O)[O-].O=C(/C=C/c1cc(O)c(O)c(O)c1)NCCCCCC[P+](c1ccccc1)(c1ccccc1)c1ccccc1 [AntiOxCIN4, (E)-(6-(3-(3,4,5-trihydroxyphenyl)prop-2-enamido)hexyl)triphenylphosphonium methanesulfonate] | approximately the same accumulation ratio | 0.498 |  |
| CS(=O)(=O)[O-].O=C(/C=C/c1cc(O)c(O)c(O)c1)NCCCCCCCC[P+](c1ccccc1)(c1ccccc1)c1ccccc1 [AntiOxCIN5, (E)-(8-(3-(3,4,5-trihydroxyphenyl)acrylamido)octyl)triphenylphosphonium methanesulfonate] |  | 0.423 | inhibition of calcium-dependent mPTP opening |
| CS(=O)(=O)[O-].O=C(/C=C/c1ccc(O)c(O)c1)NCCCCCCCCCC[P+](c1ccccc1)(c1ccccc1)c1ccccc1 [AntiOxCIN6, (E)-(10-(3-(3,4-dihydroxyphenyl)acrylamido)decyl)triphenylphosphonium methanesulfonate] |  | 0.291 | inhibition of calcium-dependent mPTP opening |
| CS(=O)(=O)[O-].O=C(/C=C/c1cc(O)c(O)c(O)c1)NCCCCCCCCCC[P+](c1ccccc1)(c1ccccc1)c1ccccc1 [AntiOxCIN7, (E)-(10-(3-(3,4,5-trihydroxyphenyl)acrylamido)decyl)triphenylphosphonium methanesulfonate] | lower accumulation ratio | 0.377 | inhibition of calcium-dependent mPTP opening |
